From patent publication US10780074B2, “Compounds and uses thereof” (Sunovion Pharmaceuticals Inc., priority 2017, dated 2020)
Counter-ions that a name gives are not always drawn.

Test system: behaviors of compound-treated mice
Assay: Neuropharmacological Assay (SmartCube)
Format: in vivo
Conditions: for minimal effective dose: Mus musculus, ip, 0.25 h, dose having 50% or more total activity in SmartCube, i.p., read-out: MED (minimal effective dose); for AD: ADHD (probability that activity matches class) / AG: analgesic (probability that activity matches class) / AX: anxiolytic (probability that activity matches class) / CE: cognitive enhancer (probability that activity matches class) / DP: anti-depressant (probability that activity matches class) / MS: mood stabilizer (probability that activity matches class) / PS: anti-psychotic (probability that activity matches class) / SD: sedative hypnotic (probability that activity matches class) / UN: uncharacterized CNS activity (probability that activity matches class): i.p. 15 min before behavioral test, most efficacious dose(s) of 3 doses
Summary of the method: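 Behavioral signatures were captured automatically by video, and each drug class received a probability for the best of three i.p. doses given 15 min pre-test (vehicle: Pharmasolve/PEG/propylene glycol). Potency is given as MED, the lowest mpk dose (typically 0.3–30) reaching 50% or more total activity.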

CNC[C@H]1OCCc2ccc(-c3ccncc3)cc21 [Compound 50, (S)—N-Methyl-1-(7-(pyridin-4-yl)isochroman-1-yl)methanamine hydrochloride]
minimal effective dose: 3 to 10 mg/kg | AD: ADHD (probability that activity matches class): + (LOQ ≤ + <5%) | AG: analgesic (probability that activity matches class): + (LOQ ≤ + <5%) | AX: anxiolytic (probability that activity matches class): ++ (5% ≤ ++ <25%) | CE: cognitive enhancer (probability that activity matches class): ++ (5% ≤ ++ <25%) | DP: anti-depressant (probability that activity matches class): ++ (5% ≤ ++ <25%) | MS: mood stabilizer (probability that activity matches class): + (LOQ ≤ + <5%) | PS: anti-psychotic (probability that activity matches class): + (LOQ ≤ + <5%) | SD: sedative hypnotic (probability that activity matches class): + (LOQ ≤ + <5%) | UN: uncharacterized CNS activity (probability that activity matches class): ++++ (50% ≤ ++++)

Cc1cc(-c2cccc3c2CCO[C@@H]3CN)cc(C)n1 [Compound 127, dihydrochloride]
minimal effective dose: 10 to 30 mg/kg | AD: ADHD (probability that activity matches class): + (LOQ ≤ + <5%) | AG: analgesic (probability that activity matches class): + (LOQ ≤ + <5%) | AX: anxiolytic (probability that activity matches class): + (LOQ ≤ + <5%) | CE: cognitive enhancer (probability that activity matches class): + (LOQ ≤ + <5%) | DP: anti-depressant (probability that activity matches class): ++ (5% ≤ ++ <25%) | MS: mood stabilizer (probability that activity matches class): + (LOQ ≤ + <5%) | PS: anti-psychotic (probability that activity matches class): + (LOQ ≤ + <5%) | SD: sedative hypnotic (probability that activity matches class): + (LOQ ≤ + <5%) | UN: uncharacterized CNS activity (probability that activity matches class): + (LOQ ≤ + <5%)

CCNCC1OCCc2c(-c3ccncc3)cccc21 (stereo not shown) [Compound 51, N-((5-(Pyridin-4-yl)isochroman-1-yl)methyl)ethanamine hydrochloride salt]
minimal effective dose: 3 to 10 mg/kg | AD: ADHD (probability that activity matches class): + (LOQ ≤ + <5%) | AG: analgesic (probability that activity matches class): + (LOQ ≤ + <5%) | AX: anxiolytic (probability that activity matches class): + (LOQ ≤ + <5%) | CE: cognitive enhancer (probability that activity matches class): + (LOQ ≤ + <5%) | DP: anti-depressant (probability that activity matches class): ++++ (50% ≤ ++++) | MS: mood stabilizer (probability that activity matches class): + (LOQ ≤ + <5%) | PS: anti-psychotic (probability that activity matches class): ++ (5% ≤ ++ <25%) | SD: sedative hypnotic (probability that activity matches class): ++ (5% ≤ ++ <25%) | UN: uncharacterized CNS activity (probability that activity matches class): + (LOQ ≤ + <5%)

NC[C@@H]1OCCc2c(-c3ccno3)cccc21 (single isomer, unassigned) [Compound 92, hydrochloride salt]
minimal effective dose: ≤ 3 mg/kg | AD: ADHD (probability that activity matches class): ++ (5% ≤ ++ <25%) | AG: analgesic (probability that activity matches class): + (LOQ ≤ + <5%) | AX: anxiolytic (probability that activity matches class): ++ (5% ≤ ++ <25%) | CE: cognitive enhancer (probability that activity matches class): + (LOQ ≤ + <5%) | DP: anti-depressant (probability that activity matches class): ++ (5% ≤ ++ <25%) | MS: mood stabilizer (probability that activity matches class): + (LOQ ≤ + <5%) | PS: anti-psychotic (probability that activity matches class): + (LOQ ≤ + <5%) | SD: sedative hypnotic (probability that activity matches class): ++ (5% ≤ ++ <25%) | UN: uncharacterized CNS activity (probability that activity matches class): +++ (25% ≤ +++ <50%)

NC[C@H]1OCCc2c(-c3cn[nH]c3)cccc21 [Compound 117, (S)-(5-(1H-pyrazol-4-yl)isochroman-1-yl)methanamine hydrochloride salt]
minimal effective dose: 3 to 10 mg/kg | AD: ADHD (probability that activity matches class): + (LOQ ≤ + <5%) | AG: analgesic (probability that activity matches class): + (LOQ ≤ + <5%) | AX: anxiolytic (probability that activity matches class): ++ (5% ≤ ++ <25%) | CE: cognitive enhancer (probability that activity matches class): + (LOQ ≤ + <5%) | DP: anti-depressant (probability that activity matches class): ++ (5% ≤ ++ <25%) | MS: mood stabilizer (probability that activity matches class): + (LOQ ≤ + <5%) | PS: anti-psychotic (probability that activity matches class): ++ (5% ≤ ++ <25%) | SD: sedative hypnotic (probability that activity matches class): ++ (5% ≤ ++ <25%) | UN: uncharacterized CNS activity (probability that activity matches class): ++ (5% ≤ ++ <25%)

NC[C@H]1OCCc2c(-c3ncc[nH]3)cccc21 [Compound 109, (S)-(5-(1H-Imidazol-2-yl)isochroman-1-yl)methanamine hydrochloride salt]
minimal effective dose: > 30 mg/kg | AD: ADHD (probability that activity matches class): + (LOQ ≤ + <5%) | AG: analgesic (probability that activity matches class): + (LOQ ≤ + <5%) | AX: anxiolytic (probability that activity matches class): ++ (5% ≤ ++ <25%) | CE: cognitive enhancer (probability that activity matches class): + (LOQ ≤ + <5%) | DP: anti-depressant (probability that activity matches class): ++ (5% ≤ ++ <25%) | MS: mood stabilizer (probability that activity matches class): + (LOQ ≤ + <5%) | PS: anti-psychotic (probability that activity matches class): + (LOQ ≤ + <5%) | SD: sedative hypnotic (probability that activity matches class): + (LOQ ≤ + <5%) | UN: uncharacterized CNS activity (probability that activity matches class): + (LOQ ≤ + <5%)

NC[C@H]1OCCc2cccc(-c3cccnc3)c21 (single isomer, unassigned) [Compound 10, hydrochloride]
minimal effective dose: 10 to 30 mg/kg | AD: ADHD (probability that activity matches class): + (LOQ ≤ + <5%) | AG: analgesic (probability that activity matches class): +++ (25% ≤ +++ <50%) | AX: anxiolytic (probability that activity matches class): + (LOQ ≤ + <5%) | CE: cognitive enhancer (probability that activity matches class): + (LOQ ≤ + <5%) | DP: anti-depressant (probability that activity matches class): ++ (5% ≤ ++ <25%) | MS: mood stabilizer (probability that activity matches class): + (LOQ ≤ + <5%) | PS: anti-psychotic (probability that activity matches class): + (LOQ ≤ + <5%) | SD: sedative hypnotic (probability that activity matches class): + (LOQ ≤ + <5%) | UN: uncharacterized CNS activity (probability that activity matches class): + (LOQ ≤ + <5%)

NC[C@@H]1OCCc2ccc(-c3ccncc3)cc21 [Compound 47, (R)-(7-(pyridin-4-yl)isochroman-1-yl)methanamine hydrochloride]
minimal effective dose: 3 to 10 mg/kg | AD: ADHD (probability that activity matches class): + (LOQ ≤ + <5%) | AG: analgesic (probability that activity matches class): + (LOQ ≤ + <5%) | AX: anxiolytic (probability that activity matches class): ++ (5% ≤ ++ <25%) | CE: cognitive enhancer (probability that activity matches class): + (LOQ ≤ + <5%) | DP: anti-depressant (probability that activity matches class): ++++ (50% ≤ ++++) | MS: mood stabilizer (probability that activity matches class): + (LOQ ≤ + <5%) | PS: anti-psychotic (probability that activity matches class): ++ (5% ≤ ++ <25%) | SD: sedative hypnotic (probability that activity matches class): + (LOQ ≤ + <5%) | UN: uncharacterized CNS activity (probability that activity matches class): + (LOQ ≤ + <5%)

CNCC1OCCc2c(-c3cnoc3)cccc21 (stereo not shown) [Compound 65, 1-(5-(Isoxazol-4-yl)isochroman-1-yl)-N-methylmethanamine hydrochloride salt]
minimal effective dose: 3 to 10 mg/kg | AD: ADHD (probability that activity matches class): ++ (5% ≤ ++ <25%) | AG: analgesic (probability that activity matches class): + (LOQ ≤ + <5%) | AX: anxiolytic (probability that activity matches class): + (LOQ ≤ + <5%) | CE: cognitive enhancer (probability that activity matches class): ++ (5% ≤ ++ <25%) | DP: anti-depressant (probability that activity matches class): ++++ (50% ≤ ++++) | MS: mood stabilizer (probability that activity matches class): + (LOQ ≤ + <5%) | PS: anti-psychotic (probability that activity matches class): ++ (5% ≤ ++ <25%) | SD: sedative hypnotic (probability that activity matches class): ++ (5% ≤ ++ <25%) | UN: uncharacterized CNS activity (probability that activity matches class): ++ (5% ≤ ++ <25%)

CNC[C@H]1OCCc2c(-c3cncnc3)cccc21 (single isomer, unassigned) [Compound 30, hydrochloride salt]
minimal effective dose: 3 to 10 mg/kg | AD: ADHD (probability that activity matches class): ++ (5% ≤ ++ <25%) | AG: analgesic (probability that activity matches class): ++ (5% ≤ ++ <25%) | AX: anxiolytic (probability that activity matches class): ++ (5% ≤ ++ <25%) | CE: cognitive enhancer (probability that activity matches class): ++ (5% ≤ ++ <25%) | DP: anti-depressant (probability that activity matches class): ++++ (50% ≤ ++++) | MS: mood stabilizer (probability that activity matches class): + (LOQ ≤ + <5%) | PS: anti-psychotic (probability that activity matches class): + (LOQ ≤ + <5%) | SD: sedative hypnotic (probability that activity matches class): + (LOQ ≤ + <5%) | UN: uncharacterized CNS activity (probability that activity matches class): + (LOQ ≤ + <5%)

NC[C@@H]1OCCc2c(-c3cncs3)cccc21 (single isomer, unassigned) [Compound 70, hydrochloride salt]
minimal effective dose: 3 to 10 mg/kg | AD: ADHD (probability that activity matches class): ++ (5% ≤ ++ <25%) | AG: analgesic (probability that activity matches class): + (LOQ ≤ + <5%) | AX: anxiolytic (probability that activity matches class): ++ (5% ≤ ++ <25%) | CE: cognitive enhancer (probability that activity matches class): + (LOQ ≤ + <5%) | DP: anti-depressant (probability that activity matches class): ++++ (50% ≤ ++++) | MS: mood stabilizer (probability that activity matches class): + (LOQ ≤ + <5%) | PS: anti-psychotic (probability that activity matches class): + (LOQ ≤ + <5%) | SD: sedative hypnotic (probability that activity matches class): + (LOQ ≤ + <5%) | UN: uncharacterized CNS activity (probability that activity matches class): +++ (25% ≤ +++ <50%)

CNC[C@@H]1OCCc2c(-c3cncs3)cccc21 (single isomer, unassigned) [Compound 68, hydrochloride salt]
minimal effective dose: 3 to 10 mg/kg | AD: ADHD (probability that activity matches class): ++ (5% ≤ ++ <25%) | AG: analgesic (probability that activity matches class): + (LOQ ≤ + <5%) | AX: anxiolytic (probability that activity matches class): ++ (5% ≤ ++ <25%) | CE: cognitive enhancer (probability that activity matches class): + (LOQ ≤ + <5%) | DP: anti-depressant (probability that activity matches class): ++++ (50% ≤ ++++) | MS: mood stabilizer (probability that activity matches class): + (LOQ ≤ + <5%) | PS: anti-psychotic (probability that activity matches class): + (LOQ ≤ + <5%) | SD: sedative hypnotic (probability that activity matches class): + (LOQ ≤ + <5%) | UN: uncharacterized CNS activity (probability that activity matches class): ++ (5% ≤ ++ <25%)

NC[C@H]1OCCc2c(-c3cocn3)cccc21 [Compound 101, (S)-(5-(oxazol-4-yl)isochroman-1-yl)methanamine HCl salt]
minimal effective dose: 3 to 10 mg/kg | AD: ADHD (probability that activity matches class): ++ (5% ≤ ++ <25%) | AG: analgesic (probability that activity matches class): + (LOQ ≤ + <5%) | AX: anxiolytic (probability that activity matches class): ++ (5% ≤ ++ <25%) | CE: cognitive enhancer (probability that activity matches class): + (LOQ ≤ + <5%) | DP: anti-depressant (probability that activity matches class): ++ (5% ≤ ++ <25%) | MS: mood stabilizer (probability that activity matches class): + (LOQ ≤ + <5%) | PS: anti-psychotic (probability that activity matches class): + (LOQ ≤ + <5%) | SD: sedative hypnotic (probability that activity matches class): + (LOQ ≤ + <5%) | UN: uncharacterized CNS activity (probability that activity matches class): ++ (5% ≤ ++ <25%)
